Laboratory results taken from article PMC7582918, “A short peptide of the C-terminal class Y helices of apolipoprotein A-I has preserved functions in cholesterol efflux and in vivo metabolic control” (Scientific Reports, 2020).

Assays:
[1] = Solubility of the peptide; type: physicochemical; conditions: peptide chemically modified at the termini
Source text: (§1) A 33-mer peptide (RG33) that corresponds to the two Class Y helices (11 and 22 residues, respectively) of the C-terminal domain of ApoA-I (corresponding to regions 209–219 and 220–241 of ApoA-I, respectively) was synthesized and chemically modified at the termini for increased stability (Fig. 1a), and analyzed by SDS-PAGE (Fig. 1b; Suppl. Fig.). Such modifications are known to lead to loss of the terminal charges of the modified peptide with potential reduction in solubility. […] Moreover, the stability of the peptide was tested by incubation for up to 90 min in either PBS or human or mouse plasma followed by LC–MS analysis of the peptide in the complex mixture, or for longer time periods (up to 168 h at 5 °C or 22 °C) in PBS followed by LC-UV analysis of the pure peptide. […] The extent of degradation in plasma was assumed not to affect the in vitro and in vivo analyses made herein. Nevertheless, while not needed for the current study, further modifications aimed at prolonging the half-life of the RG33 peptide in plasma would be beneficial for therapeutic uses.
Figure 1 Peptide characterization for RG33. (a) Full peptide sequence. (b) Peptide purity as shown by Tris/Tricine SDS PAGE visualized by coomassie staining, 5 μg/well. (c) Stability of native or refolded RG33 over time in phosphate buffer, human plasma or mouse plasma. GraphPad Prism (version 8.0) (www.graphpad.com) was used. […]

[2] = Stability in PBS (LC-MS up to 90 min; LC-UV up to 168 h); type: physicochemical
Description: (§2) Mouse CD-1 plasma (heparin) was from Novakemi AB. Analysis was performed using LC–MS/MS, a Sciex QTRAP 6500 coupled to a Waters Acquity LC system with an attached HSS T3 2 × 50 mm column. A 5%-100% acetonitrile gradient and 0.1% formic acid was used as mobile phase.
as §1
Figure 1 Peptide characterization for RG33. (a) Full peptide sequence. (b) Peptide purity as shown by Tris/Tricine SDS PAGE visualized by coomassie staining, 5 μg/well. (c) Stability of native or refolded RG33 over time in phosphate buffer, human plasma or mouse plasma. GraphPad Prism (version 8.0) (www.graphpad.com) was used. TEXT PRINTED IN THE PICTURE: (a) RG33: MW (g/mol): 3790.42; Solubility: > 3.0 mg/ml

[3] = Stability in human plasma (LC-MS/MS); type: in vitro ADME; conditions: human plasma (citrate), pooled from four donors, incubation up to 90 min
Description: Peptide (lyophilized powder) produced by Red Glead AB (Lund, Sweden) was reconstituted as previously described. Peptide concentration was determined using a NanoDrop 2000c spectrophotometer (Thermo Scientific), and integrity was analysed by Tris-Tricine SDS-PAGE followed by Coomassie staining and by circular dichroism spectroscopy (CD). CD spectra were acquired on a Jasco J-810 spectropolarimeter equipped with a Jasco CDF-426S Peltier, set to 25 °C[18]. Samples were loaded into a 1 mm quartz cuvette and CD spectra acquired at 25 °C in the far-UV range 200–260 nm, with a 1 nm wavelength increment. Averages of five scans were baseline-subtracted (PBS buffer; 25 mM phosphate, 150 mM NaCl) and the alpha-helical content was calculated from the molar ellipticity at 222 nm as previously described[11],[19]. Human plasma (citrate) was from Blodcentralen at the Uppsala academic hospital and pooled from four healthy volunteer blood donors after giving informed consent for general research use. […]
A 33-mer peptide (RG33) that corresponds to the two Class Y helices (11 and 22 residues, respectively) of the C-terminal domain of ApoA-I (corresponding to regions 209–219 and 220–241 of ApoA-I, respectively) was synthesized and chemically modified at the termini for increased stability (Fig. 1a), and analyzed by SDS-PAGE (Fig. 1b; Suppl. Fig.). […]

[4] = Stability in mouse plasma (LC-MS/MS); type: in vitro ADME; conditions: mouse CD-1 plasma (heparin), incubation up to 90 min
Description: as §2, §1
Figure 1 Peptide characterization for RG33. […]

[5] = rHDL formation / solubilization of DMPC multilamellar vesicles, dynamic light scattering; conditions: 100 nm DMPC MLVs, 4 days at 24 °C, DLS
Description: 1,2-Dimyristoyl-sn-glycero-3-phosphocholine (DMPC; Avanti Polar Lipids) was formed into 100 nm multilamellar vesicles (MLV) via extrusion using the LiposoFast system (Avestin) as previously described. MLV were incubated with RG33 at indicated ratios for 4 days at 24 °C to form rHDL. The resulting particle sizes were measured by Dynamic Light Scattering using a Zetasizer APS (Malvern Instruments).
Figure 2 Peptide structure and lipid complex formation activity of RG33. (a) Circular dichroism spectroscopy of RG33 dissolved in PBS at 0.2 mg/ml. This spectrum represents the average of five measurements using five separate solutions. (b) Helical wheel analysis of residues 209 to 241 of the ApoA-I protein. One-letter code for amino acids is used and numbered 1 to 33 with start at residue 209. (c) rHDL particles were prepared by incubating the MLVs with RG33 peptide in the molar ratios noted at 24 °C for four days. Particle size distribution was analysed by DLS and frequency curves generated for RG33. Both MLVs alone (data on pure 100 nm MLVs is adapted from[15]) and lipid-free peptide are included as controls. GraphPad Prism (version 8.0) (www.graphpad.com) was used. Data represents five individual experiments.
As described above, the amphipathic organization of the RG33 peptide is expected to promote efficient lipid-binding. […]

[6] = previously shown; cited from earlier work
Source text: Circular dichroism (CD) spectroscopy (Fig. 2a) was next used to assay for peptide integrity and secondary structure. The helical content of the RG33 peptide in solution was based on the CD data and estimated to be on average 31%. This is higher than the helical content of the 190–243 ApoA-I peptide which was previously shown to be in the range of 17–21% alpha-helix[11]. A high helical content combined with an amphipathic arrangement of the helices is important for the lipid-binding function. Indeed, the binding of lipids induces formation of amphipathic helixes of the ApoA-I protein[23]. In li ...

J774 macrophages = conditions: previously described; cited from earlier work
Description: To analyze this, cultured J774 macrophages were loaded with isotope-labelled cholesterol, followed by incubation with RG33 (LF or LB) at specified concentrations for 2 h (Fig. 3a).

Row | Substance | Solubility [1] [µg/mL] | Stability in PBS, shorter incubation ([2]; PBS (phosphate buffer), incubation up to 90 min, LC-MS analysis) | Stability in PBS, longer storage at 5 °C ([2]; PBS, up to 168 h (a week) at 5 °C, LC-UV analysis of the pure peptide, data not shown) | Stability in PBS, longer storage at 22 °C ([2]; PBS, up to 168 h (a week) at 22 °C, LC-UV analysis of the pure peptide, data not shown) | Stability in human plasma [3] | Stability in mouse plasma [4] | Solubilization of DMPC MLVs at 1:50 peptide-to-lipid molar ratio [5] | Helical content (alpha-helix) [6] | Fold increase in Vmax, LB vs LF (J774 macrophages)
1 | Ac-PALEDLRQGLLPVLESFKVSFLSALEEYTKKLN-NH2 [RG33] | > 3000 | intact | intact | intact | some degradation | some degradation | only partial solubilization |  | 
2 | RG54: Peptide corresponding to amino acid residues 190–243 of ApoA-I protein (AEYHAKATEHLSTLSEKAKPALEDLRQGLLPVLESFKVSFLSALEEYTKKLNTQ; UniProt P02647 214-267, looked up, fragment) |  |  |  |  |  |  |  | 17–21% | twofold increase
